Laboratory results: US10538567B2, “Compounds as peptidic trigonal GLP1/glucagon/GIP receptor agonists” (priority 2016, dated 2020)
Numbered stars: 1 amine (or outer) side, 2 acyl side, 3 side chain; on linkers, the order of the positions; unused ones are H or OH. Square brackets hold non-standard residues; d marks the D form. Side chains are listed from the residue outwards. Peptide text beside a SMILES is read from it. * marks the point of attachment. γGlu = O=C(O)[C@H](CCC(=O)[*:2])N[*:1]; Palmitoyl = CCCCCCCCCCCCCCCC(=O)*; Aib = CC(C)(N)C(=O)O

Assays:
[1] = tested on: female diabetic db/db mice; assay: Acute effects after s.c. treatment on blood glucose in non-fasting female diabetic db/db mice; assay type: in vivo; settings: single 30 μg/kg s.c.
Method: Female healthy, lean BKS.Cg-(lean)/OlaHsd and diabetes-prone, obese BKS.Cg-+Lepr^db/+Lepr^db/OlaHsd mice were ordered group housed from Envigo RMS Inc., shipped group housed and remained group housed in shoebox caging with wood chip bedding until day 15 of the predose phase. At the study start mice were approximately 12 weeks old.
Mice were housed under vivarium conditions including a 12 h light/dark cycle (light phase 04:00 AM-4:00 PM), room temperatures between 23-26° C. and a relative humidity between 30-70%. All animals had free access to water and Purina Fomulab Diet 5008.
On predose day 9 blood glucose and body mass (approximately between 08:00-10:00 AM) as well as HbA1c measurements were performed. On day 15 of the predose phase animals were assigned to treatment groups (n=8) and to new cages to match mean HbA1c and body masses between all db/db groups. An age-matched lean group was included in the study as a healthy, lean reference.
Prior to day 1 of the dosing phase, the test article was diluted with Phosphate Buffered Saline (PBS, Gibco, without CaCl2 and MgCl2) to a concentration of 1 mg/mL and aliquots of this stock solution were stored at approximately ≤−60° C. On day 1 of the dosing phase the stock aliquot was thawed and the injected test article solution was prepared fresh by diluting it with PBS to achieve the desired concentration.
On Day 1 of the dosing phase db/db mice were either treated once with a s.c. injection of PBS-vehicle or 30 μg/kg test article. The lean reference group was treated once with a s.c. injection of PBS-vehicle. The dosing was initiated and completed between 08:00 and 10:00 AM. The applied volume was 5 ml/kg and the dose was adjusted to the most recent body mass recording of each individual.
Animals had unlimited access to water and feed during the experiment. On day 1 of the dosing phase approximately 5 μL of blood were collected via tail clips at minute −30 and 0 prior to any other inlife activities. At minute 0 mice received a s.c. dose of either PBS-vehicle or 30 μg/kg test article. Further blood samples were harvested at hour 0.25, 0.5, 1, 1.5, 2, 3, 4, 6, 8, and 24 post-dose. Glucose measurements were performed in whole blood using AlphaTRAK glucometers. If the glucose concentrations of two measurements differed by more than 20 mg/dL a third value was recorded. The Area Under the Curve (AUC) for blood glucose was calculated via the trapezoid method and for the duration of the 24 post-dose hours.
In the Figures data are depicted as means±SEM. […] A One Way Analysis of Variance and multiple comparisons (Dunnett's Method) were performed comparing the group of diabetic, obese db/db vehicle mice (n=8) with each diabetic, obese db/db test article treated mice (n=8). […] Non-diabetic, lean-vehicle group data are depicted in the Figures serving as a reference dataset for the non-obese, non-diabetic state.

[2] = Thioflavin T (ThT) assay for physical stability (fibrillation); assay type: physicochemical; settings: 3 mg/ml, 100 mM acetate pH 4.5 with m-cresol, 37° C. shaking
Procedure, shortened: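 Peptides at 3 mg/ml final with 100 μM ThT final in 100 mM acetate pH 4.5 containing 2.7 mg/mL m-cresol, eight replicates. Stressed at 37° C by repeated cycles of 10 s shaking at 960 rpm and 50 s rest. Fluorescence read every 20 minutes; lag time in hours taken from the sigmoidal kinetic curve.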

[3] = Chemical stability assessment, UPLC-UV purity loss in buffer system A; assay type: physicochemical; settings: 1 mg/ml, 25 mM acetate buffer pH 4.5 with m-cresol
Procedure, shortened: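 Peptide at 1 mg/mL pure compound (purity-corrected) in 25 mM acetate buffer pH 4.5 with L-methionine, m-cresol and glycerol was sterile-filtered and stored 28 days at 5 and 40° C. UPLC-UV purity (peptide peak area/total area) was compared with the starting value to give relative purity loss in %.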

Lag time before increase [2] [h]	Chemical stability [relative purity loss 28 days 40° C.] (%) at pH 4.5 [3] [%]	SMILES	mean blood glucose concentration 24 hours post-dose relative to baseline [1]	time to normalise hyperglycemia to the non-fasting blood glucose concentrations of lean reference mice [1] [h]
>45	10.6	CCCCCCCCCCCCCCCC(=O)N[C@@H](CCC(=O)N[C@@H](CCC(=O)NCCCC[C@H](NC(=O)[C@H](CC(C)C)NC(=O)[C@H](CCCCN)NC(=O)[C@H](CO)NC(=O)[C@H](CC(C)C)NC(=O)[C@H](CC(=O)O)NC(=O)[C@H](CO)NC(=O)[C@@H](NC(=O)[C@H](Cc1ccccc1)NC(=O)[C@@H](NC(=O)CNC(=O)[C@H](Cc1c[nH]cn1)NC(=O)C(C)(C)NC(=O)[C@@H](N)Cc1c[nH]cn1)[C@@H](C)O)[C@@H](C)O)C(=O)N[C@@H](CCC(=O)O)C(=O)N[C@@H](CCC(=O)O)C(=O)N[C@@H](CCC(N)=O)C(=O)N[C@@H](CCCNC(=N)N)C(=O)N[C@@H](CCC(N)=O)C(=O)NC(C)(C)C(=O)N[C@@H](CCC(=O)O)C(=O)N[C@@H](Cc1ccccc1)C(=O)N[C@H](C(=O)N[C@@H](CCC(=O)O)C(=O)N[C@@H](Cc1c[nH]c2ccccc12)C(=O)N[C@@H](CC(C)C)C(=O)N[C@@H](CCCCN)C(=O)N[C@@H](C)C(=O)NCC(=O)NCC(=O)N1CCC[C@H]1C(=O)N1CCC[C@H]1C(=O)N[C@@H](CO)C(=O)NC(C)(C)C(=O)N[C@@H](CCCCN)C(=O)N1CCC[C@H]1C(=O)N1CCC[C@H]1C(=O)N1CCC[C@H]1C(=O)N[C@@H](CCCCN)C(N)=O)[C@@H](C)CC)C(=O)O)C(=O)O [SEQ ID NO: 10, H-Aib-H-G-T-F-T-S-D-L-S-K-L-K[gGlu-gGlu-Palm]-E-E-Q-R-Q-Aib-E-F-I-E-W-L-K-A-G-G-P-P-S-Aib-K-P-P-P-K-NH2]	at or close to baseline	
>45	8.8	CCCCCCCCCCCCCCCC(=O)N[C@@H](CCC(=O)N[C@@H](CCC(=O)NCCCC[C@H](NC(=O)[C@H](CC(C)C)NC(=O)[C@H](CCCCN)NC(=O)[C@H](CO)NC(=O)[C@H](CC(C)C)NC(=O)[C@H](CC(=O)O)NC(=O)[C@H](CO)NC(=O)[C@@H](NC(=O)[C@H](Cc1ccccc1)NC(=O)[C@@H](NC(=O)CNC(=O)[C@H](Cc1c[nH]cn1)NC(=O)C(C)(C)NC(=O)[C@@H](N)Cc1c[nH]cn1)[C@@H](C)O)[C@@H](C)O)C(=O)N[C@@H](CCC(=O)O)C(=O)N[C@@H](CCC(=O)O)C(=O)N[C@@H](CCC(N)=O)C(=O)N[C@@H](CCCNC(=N)N)C(=O)N[C@@H](CCC(N)=O)C(=O)NC(C)(C)C(=O)N[C@@H](CCC(=O)O)C(=O)N[C@@H](Cc1ccccc1)C(=O)N[C@H](C(=O)N[C@@H](CCC(=O)O)C(=O)N[C@@H](Cc1c[nH]c2ccccc12)C(=O)N[C@@H](CC(C)C)C(=O)N[C@@H](CCCCN)C(=O)N[C@@H](C)C(=O)N[C@H](C)C(=O)NCC(=O)N1CCC[C@H]1C(=O)N1CCC[C@H]1C(=O)N[C@@H](CO)C(=O)NC(C)(C)C(=O)N[C@@H](CCCCN)C(=O)N1CCC[C@H]1C(=O)N1CCC[C@H]1C(=O)N1CCC[C@H]1C(=O)N[C@@H](CCCCN)C(N)=O)[C@@H](C)CC)C(=O)O)C(=O)O [SEQ ID NO: 11, H-Aib-H-G-T-F-T-S-D-L-S-K-L-K[gGlu-gGlu-Palm]-E-E-Q-R-Q-Aib-E-F-I-E-W-L-K-A-dAla-G-P-P-S-Aib-K-P-P-P-K-NH2] (H-H[Aib]HGTFTSDLSKLK([γGlu-γGlu-Palmitoyl])EEQRQ[Aib]EFIEWLKA[dA]GPPS[Aib]KPPPK-NH2)	still below baseline concentrations	≤ 6
>45	11.9	CCCCCCCCCCCCCCCC(=O)N[C@@H](CCC(=O)N[C@@H](CCC(=O)NCCCC[C@H](NC(=O)[C@H](CC(C)C)NC(=O)[C@H](CCCCN)NC(=O)[C@H](CO)NC(=O)[C@H](CC(C)C)NC(=O)[C@H](CC(=O)O)NC(=O)[C@H](CO)NC(=O)[C@@H](NC(=O)[C@H](Cc1ccccc1)NC(=O)[C@@H](NC(=O)CNC(=O)[C@H](Cc1c[nH]cn1)NC(=O)C(C)(C)NC(=O)[C@@H](N)Cc1c[nH]cn1)[C@@H](C)O)[C@@H](C)O)C(=O)N[C@@H](CCC(=O)O)C(=O)N[C@@H](CCC(=O)O)C(=O)N[C@@H](CCC(N)=O)C(=O)N[C@@H](CCCNC(=N)N)C(=O)N[C@@H](CCC(N)=O)C(=O)NC(C)(C)C(=O)N[C@@H](CCC(=O)O)C(=O)N[C@@H](Cc1ccccc1)C(=O)N[C@H](C(=O)N[C@@H](CCC(=O)O)C(=O)N[C@@H](Cc1c[nH]c2ccccc12)C(=O)N[C@@H](CC(C)C)C(=O)N[C@@H](CCCCN)C(=O)N[C@@H](C)C(=O)NCC(=O)NCC(=O)N[C@@H](Cc1c[nH]cn1)C(=O)N1CCC[C@H]1C(=O)N[C@@H](CO)C(=O)NC(C)(C)C(=O)N[C@@H](CCCCN)C(=O)N1CCC[C@H]1C(=O)N1CCC[C@H]1C(=O)N1CCC[C@H]1C(=O)N[C@@H](CCCCN)C(N)=O)[C@@H](C)CC)C(=O)O)C(=O)O [SEQ ID NO: 12, H-Aib-H-G-T-F-T-S-D-L-S-K-L-K[gGlu-gGlu-Palm]-E-E-Q-R-Q-Aib-E-F-I-E-W-L-K-A-G-G-H-P-S-Aib-K-P-P-P-K-NH2]	at or close to baseline	
>45	10.5	CCCCCCCCCCCCCCCC(=O)N[C@@H](CCC(=O)N[C@@H](CCC(=O)NCCCC[C@H](NC(=O)[C@H](CC(C)C)NC(=O)[C@H](CCCCN)NC(=O)[C@H](CO)NC(=O)[C@H](CC(C)C)NC(=O)[C@H](CC(=O)O)NC(=O)[C@H](CO)NC(=O)[C@@H](NC(=O)[C@H](Cc1ccccc1)NC(=O)[C@@H](NC(=O)CNC(=O)[C@H](Cc1c[nH]cn1)NC(=O)C(C)(C)NC(=O)[C@@H](N)Cc1c[nH]cn1)[C@@H](C)O)[C@@H](C)O)C(=O)N[C@@H](CCC(=O)O)C(=O)N[C@@H](CCC(=O)O)C(=O)N[C@@H](CCC(N)=O)C(=O)N[C@@H](CCCNC(=N)N)C(=O)N[C@@H](CCC(N)=O)C(=O)NC(C)(C)C(=O)N[C@@H](CCC(=O)O)C(=O)N[C@@H](Cc1ccccc1)C(=O)N[C@H](C(=O)N[C@@H](CCC(=O)O)C(=O)N[C@@H](Cc1c[nH]c2ccccc12)C(=O)N[C@@H](CC(C)C)C(=O)N[C@@H](CCCCN)C(=O)N[C@@H](C)C(=O)N[C@H](C)C(=O)NCC(=O)N[C@@H](Cc1c[nH]cn1)C(=O)N1CCC[C@H]1C(=O)N[C@@H](CO)C(=O)NC(C)(C)C(=O)N[C@@H](CCCCN)C(=O)N1CCC[C@H]1C(=O)N1CCC[C@H]1C(=O)N1CCC[C@H]1C(=O)N[C@@H](CCCCN)C(N)=O)[C@@H](C)CC)C(=O)O)C(=O)O [SEQ ID NO: 13, H-Aib-H-G-T-F-T-S-D-L-S-K-L-K[gGlu-gGlu-Palm]-E-E-Q-R-Q-Aib-E-F-I-E-W-L-K-A-dAla-G-H-P-S-Aib-K-P-P-P-K-NH2] (H-H[Aib]HGTFTSDLSKLK([γGlu-γGlu-Palmitoyl])EEQRQ[Aib]EFIEWLKA[dA]GHPS[Aib]KPPPK-NH2)	at or close to baseline	
